Source: patent US8524688B2, “Use of sulfated glycosaminoglycans for establishing effective labor in women” (Dilafor AB, priority 2002, dated 2013)

How the values were obtained:
cervical fibroblasts = assay: Effect on Ca2+ levels in cervical fibroblasts (Fluo-4 fluorescence); type: cell-based, human; conditions: cultures from non-pregnant and term pregnant patients
Experimental: Fibroblast cultures were established from non-pregnant, and term pregnant patients and from women delivered vaginally (after partus patients). The cells were cultured in monolayer cultures with minimum essential medium with 10% donor calf serum. For experiments these cells were plated on cover glasses with at semi-confluence and loaded with Fluo-4 in phosphate buffered saline containing 10 mM HEPES for 30 min. Initially phosphate buffered saline containing 10 mM HEPES (HEPES-buffer) was pumped into the observation chamber for 30 s, then KCl in the same buffer was pumped for 60 s followed by HEPES-buffer for 30 s. Then 10 ng of PDGF/ml in HEPES-buffer was added. The fluorescence was monitored continuously for 3 min. In other experiments PDGF was replaced with 100 μg of HS6. […] This effect is postulated to be of importance at partus for final preparation of cervix for delivery.

[1] = test system: human uterine strips (myometrial strip); assay: Contractile assay on uterine strips in organ bath; conditions: 1 U oxytocin only
Experimental: In the following test heparan sulfate HS2 and HS6 obtained from the heparin side fraction TB 001-91 SVCM 950130 (Kabi-Pharmacia, Sweden) were tested. HS6 differs from HS2 by being more highly sulfated and having more L-iduronic acid residues (see Table 1 above).
Uterine samples were obtained from women undergoing elective caesarian section at 38-39 weeks of gestation. The samples measured 20×10×10 mm and were taken from the upper part of the isthmic incision. The biopsy was immediately placed in ice-cold Krebs-Ringer buffer. The biopsies were cut into longitudinal strips, length 10-15 mm and breadth about 5 mm. The strip was mounted vertically in an organ bath of 37° C. containing 2 ml Krebs-Ringer solution. The solution was bubbled with a mixture of 95% O2 and 5% CO2 in order to maintain a pH in the bath of 7.35-7.45. Experiments were carried out after the strips had equilibrated to a stable contractile state, usually within 1-2 h after mounting. The contractions were recorded isometrically with a Grass model 7 polygraph (Grass Instr. Co., Quincy, Mass., USA). All samples were exposed to 100 mM KCl during the experiment in order to get a standardized maximum response. […]
This procedure was repeated using 6 μg of heparan sulfate. […] The contractions were recorded and evaluated by integrating the surface under the curve. […]

Molecule | Change of fluorescence (intracellular Ca2+) (cervical fibroblasts) | Relative contractility of myometrial strip, oxytocin control [1]
[Cl-].[K+] [KCl] | No change of fluorescence | –
CC[C@H](C)[C@@H]1NC(=O)[C@H](Cc2ccc(O)cc2)NC(=O)[C@@H](N)CSSC[C@@H](C(=O)N2CCC[C@H]2C(=O)N[C@@H](CC(C)C)C(=O)NCC(N)=O)NC(=O)[C@H](CC(N)=O)NC(=O)[C@H](CCC(N)=O)NC1=O [Oxytocin, oxytocin] | – | 226 % of unstimulated control
PDGF | No change of fluorescence | –
